Measured values reported in patent US11234919B2, “Compound produced by means of marine microorganism and composition for improving skin wrinkles, enhancing elasticity and skin whitening comprising same compound as active ingredient” (KOREA INSTITUTE OF OCEAN SCIENCE & TECHNOLOGY, priority 2017, dated 2022).

Tests used:
B-16 melanoma cells = experiment: Melanogenesis inhibition in B-16 melanoma cell culture; type: cell-based; settings: for Amount of melanin produced: absorbance at 400 nm per 10^6 cells, incubation 3 days
Procedure: The compounds shown in Table 1 were set to have final concentrations of 2 ppm and 20 ppm, and each of the compounds was added to a culture medium of B-16 melanoma cells, followed by incubation for 3 days. Thereafter, the cells were treated with trypsin, detached from the incubator, and centrifuged, and then melanin was extracted therefrom. The melanin was dissolved by addition of 1 mL of a sodium hydroxide solution (1 N) and boiling for 10 min, and then the absorbance was measured at 400 nm using a spectrometer, thereby determining the amount of melanin produced. The amount of melanin was measured as an absorbance per unit cell count (10^6 cells), and the amount of melanin production relative to the control with nothing added was calculated as an inhibition (%). The test was repeated three times.
To compare melanogenesis inhibiting activity of the compounds according to the present disclosure, 20 ppm arbutin was also tested by the same method, and the results are also shown in Table 3.

[1] = test system: human-derived fibroblasts; experiment: Increase in collagen synthesis, PICP EIA kit, human fibroblast culture; type: cell-based; settings: final concentration 20 ppm, incubation one day; for Amount of collagen production: amount of collagen production as absorbance at 450 nm; for Collagen increase (%): ratio of collagen production relative to control
Procedure: Out of the compounds represented by Formula 2, the compounds according to the present disclosure shown in Table 1 were tested for collagen synthesis stimulating activity by addition to cultures of human-derived fibroblasts.
The measurement of synthesized collagen was conducted by quantification using a procollagen type I C-peptide enzyme immunoassay kit (PICP EIA kit).
Collagen synthetic ability was evaluated by selecting the concentrations causing no toxicity on the basis of cytotoxicity results.
In the test, the final concentration of the compounds of the present disclosure was set to 20 ppm. Each sample was added to the culture medium of human fibroblasts, followed by incubation for one day, and then the culture was taken out, and the degree of collagen synthesis was measured at each concentration through the PICP EIA kit by using a spectrometer at 450 nm. For comparison of effects, the degree of collagen synthesis was measured by the same method on a culture medium of fibroblasts with nothing added (control) and a sample with vitamin C added to a final concentration of 20 ppm. The amount of collagen production was measured as a UV absorbance, and the rate of increase in collagen production was calculated as a ratio of collagen production relative to the collagen production of the control.

[2] = melanin production relative to control with nothing added, final concentration 2 ppm, 3 days
[3] = melanin production relative to control with nothing added, final concentration 20 ppm, 3 days

Compound	inhibition at 20 ppm (B-16 melanoma cells; Mus musculus, B16, 72 h, melanin production relative to control with nothing added, final concentration 20 ppm, 3 days) [%]	Amount of melanin produced (B-16 melanoma cells; final concentration 20 ppm)	Amount of melanin produced (B-16 melanoma cells; final concentration 2 ppm)	Inhibition (%) (B-16 melanoma cells; [2])	Inhibition (%) (B-16 melanoma cells; [3])	Amount of collagen production [1]	Collagen increase (%) [1] [%]
OC[C@H]1O[C@@H](Oc2ccc(O)cc2)[C@H](O)[C@@H](O)[C@@H]1O [Arbutin, arbutin, reference compound]	6.5	0.056 ± 0.001	–	–	–	–	–
C=C(C)c1cc(O)cc(=O)o1 [Compound 1]	–	0.046 ± 0.001	0.047 ± 0.001	21.8	23.5	287.65	152.2
C/C=C(\C)c1oc(=O)c(C)c(O)c1C [Compound 2]	–	0.046 ± 0.001	0.048 ± 0.001	20.0	23.5	287.24	147.2
CC/C=C(\C)c1oc(=O)c(CC)c(O)c1CC [Compound 3]	–	0.047 ± 0.001	0.048 ± 0.001	20.0	21.8	287.24	147.2
C=C(C)c1oc(=O)cc(O)c1C(=O)O [Compound 4]	–	0.046 ± 0.001	0.048 ± 0.001	20.0	23.5	287.61	152.1
C/C=C(\C)c1oc(=O)c(C)cc1C [Compound 5]	–	0.047 ± 0.001	0.049 ± 0.001	18.3	21.8	287.65	152.2
C/C(=C\CO)c1cc(O)cc(=O)o1 [Compound 6]	–	0.046 ± 0.001	0.048 ± 0.001	18.3	23.5	287.61	152.1
CCc1c(C)c(C(=O)O)c(/C(C)=C/CO)oc1=O [Compound 9]	–	0.047 ± 0.001	0.049 ± 0.001	18.3	21.8	287.61	152.1
CC/C=C(\C)c1oc(=O)c(CC)c(C)c1CC [Compound 10]	–	0.047 ± 0.001	0.049 ± 0.001	18.3	21.8	287.24	147.2
O=C1O[C@H]([C@@H](O)CO)C(O)=C1O [Vitamin C, vitamin C, reference compound]	–	–	–	–	–	217.35	115.3
